Laboratory results as given in the supplement of paper PMC10307832.

How the values were obtained:
Assay in all cases: relative viability (nuclei count vs DMSO), 5 days (fraction); higher = more cells survive
XMD8-85 + Foretinib = compound: CN1CCN(CC1)C2=CC(=C(C=C2)NC3=NC=C4C(=N3)N(C5=CC=CC=C5C(=O)N4C)C)OC [XMD8-85] + COc1cc2c(Oc3ccc(NC(=O)C4(C(=O)Nc5ccc(F)cc5)CC4)cc3F)ccnc2cc1OCCCN1CCOCC1 [Foretinib] (partner 0.25 µM)
How it was run: (§1)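 Relative viability was taken as the ratio of nuclei in treated wells to nuclei in vehicle wells. Lung cancer cell lines in 1536-well plates received compounds by pin tool one day after seeding, either one drug alone or a fixed anchor-drug dose plus five library-drug doses (not always all listed) in √10 steps. Nuclei were counted on 4× images after 5 days of treatment, and values are medians of duplicate plates.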

XMD8-85 + Crizotinib = compound: CN1CCN(CC1)C2=CC(=C(C=C2)NC3=NC=C4C(=N3)N(C5=CC=CC=C5C(=O)N4C)C)OC [XMD8-85] + C[C@@H](Oc1cc(-c2cnn(C3CCNCC3)c2)cnc1N)c1c(Cl)ccc(F)c1Cl [Crizotinib] (partner 1 µM)
How it was run: as §1

XMD8-85 + Linsitinib = compound: CN1CCN(CC1)C2=CC(=C(C=C2)NC3=NC=C4C(=N3)N(C5=CC=CC=C5C(=O)N4C)C)OC [XMD8-85] + C[C@]1(O)C[C@@H](c2nc(-c3ccc4ccc(-c5ccccc5)nc4c3)c3c(N)nccn32)C1 [Linsitinib] (partner 1 µM)
How it was run: as §1

4EGI-1 + Pictilisib = compound: O=C(O)C(Cc1ccccc1[N+](=O)[O-])=NNc1nc(-c2ccc(Cl)c(Cl)c2)cs1 (mixture of isomers) [4EGI-1] + CS(=O)(=O)N1CCN(Cc2cc3nc(-c4cccc5[nH]ncc45)nc(N4CCOCC4)c3s2)CC1 [Pictilisib] (partner 1 µM)
How it was run: as §1

Cell Line | relative viability (XMD8-85 + Foretinib; first compound 0.08 µM) | relative viability (XMD8-85 + Foretinib; first compound 0.253 µM) | relative viability (XMD8-85 + Foretinib; first compound 0.8 µM) | relative viability (XMD8-85 + Foretinib; first compound 2.53 µM) | relative viability (XMD8-85 + Foretinib; first compound 8 µM) | relative viability (XMD8-85 + Crizotinib; first compound 0.08 µM) | relative viability (XMD8-85 + Crizotinib; first compound 0.253 µM) | relative viability (XMD8-85 + Crizotinib; first compound 0.8 µM) | relative viability (XMD8-85 + Crizotinib; first compound 2.53 µM) | relative viability (XMD8-85 + Crizotinib; first compound 8 µM) | relative viability (XMD8-85 + Linsitinib; first compound 0.08 µM) | relative viability (XMD8-85 + Linsitinib; first compound 0.253 µM) | relative viability (XMD8-85 + Linsitinib; first compound 0.8 µM) | relative viability (XMD8-85 + Linsitinib; first compound 2.53 µM) | relative viability (XMD8-85 + Linsitinib; first compound 8 µM) | relative viability (4EGI-1 + Pictilisib; first compound 0.5 µM) | relative viability (4EGI-1 + Pictilisib; first compound 5 µM) | relative viability (4EGI-1 + Pictilisib; first compound 15.81 µM) | relative viability (4EGI-1 + Pictilisib; first compound 50 µM) | relative viability (4EGI-1 + Pictilisib; first compound 1.581 µM)
NCI-H2023 | 0.865 | 0.804 | 0.961 | 0.699 | 0.391 | 0.578 | 0.627 | 0.705 | 0.544 | 0.287 | 0.564 | 0.811 | 0.76 | 0.657 | 0.34 | 0.275 | 0.207 | 0.177 | 0.0916 | –
NCI-H2085 | 0.902 | 0.854 | 0.823 | 0.751 | 0.563 | 0.76 | 0.738 | 0.795 | 0.859 | 0.559 | 0.585 | 0.943 | 0.935 | 0.885 | 0.674 | 0.538 | 0.52 | 0.507 | 0.439 | 0.513
NCI-H2087 | 1.34 | 1.11 | 1.32 | 1.15 | 0.682 | 0.821 | 0.857 | 0.994 | 0.994 | 0.674 | 0.929 | 1.01 | 1.09 | 1.06 | 0.7 | 1.02 | 0.888 | 0.626 | 0.386 | 0.813
NCI-H2126 | 1.07 | 1.03 | 1.13 | 0.996 | 0.935 | 1.02 | 0.974 | 1.02 | 1.06 | 1 | 0.69 | – | 0.766 | 0.726 | 0.681 | 0.525 | 0.581 | 0.445 | 0.42 | 0.455
NCI-H2228 | 0.88 | 0.758 | 0.789 | 0.816 | 0.423 | 0.454 | 0.442 | 0.521 | 0.528 | 0.26 | 0.587 | 0.944 | 0.609 | 0.858 | 0.444 | 0.444 | 0.464 | 0.335 | 0.298 | 0.403
NCI-H2347 | 0.75 | 0.836 | 0.829 | 1.07 | 0.758 | 0.696 | 0.785 | 0.749 | 0.609 | 0.614 | 0.91 | 0.923 | 0.808 | 1.04 | 0.796 | 0.469 | 0.579 | 0.738 | 0.361 | 0.488
NCI-H2405 | 1.07 | 1.08 | 1.07 | 1.04 | 0.984 | 0.829 | 0.815 | 0.769 | 0.85 | 0.665 | – | 0.912 | 0.951 | 0.735 | 0.739 | 0.471 | 0.547 | 0.571 | 0.518 | 0.355
NCI-H3122 | 1.04 | – | 1.07 | 1.04 | 0.947 | 0.261 | 0.258 | 0.274 | 0.329 | 0.331 | 1.03 | 0.95 | 1.03 | 1.06 | 1.09 | 0.599 | 0.632 | 0.635 | 0.412 | 0.531
PC-3 [JPC-3] | 1.05 | 1.04 | 1.04 | 1.19 | 0.912 | 0.827 | 1.12 | 1.01 | 1.09 | 0.986 | 0.958 | 0.994 | 1.02 | 1.09 | – | 0.772 | 0.706 | – | 0.458 | 0.826
PC-14 | 0.953 | 0.826 | 0.881 | 1.03 | 0.851 | 0.867 | 0.874 | 0.834 | 0.972 | 0.722 | 1.06 | 0.849 | 0.914 | 0.843 | 0.86 | 0.879 | 0.602 | – | 0.704 | 0.464
RERF-LC-KJ | 0.84 | 0.762 | 0.877 | 0.877 | 0.849 | 0.881 | 0.751 | 0.807 | 0.817 | 0.658 | 0.826 | 0.903 | 0.881 | 0.804 | 0.883 | 0.636 | 0.468 | 0.357 | 0.581 | 0.42
SK-LU-1 | 0.845 | 0.825 | 0.841 | 0.772 | 0.674 | 0.568 | 0.892 | 1.07 | 1.12 | 0.653 | 0.947 | 1.11 | 1.12 | 1.07 | 0.91 | 0.628 | 0.618 | 0.541 | 0.416 | 0.648
SK-MES-1 | 0.888 | 0.712 | 0.875 | 1 | 0.57 | 0.964 | 1.03 | 0.94 | 0.923 | 0.61 | 1.09 | 0.942 | 0.95 | 1 | 0.964 | 0.458 | 0.338 | 0.303 | 0.347 | 0.349
SW 1573 | 0.876 | 0.884 | 0.854 | 1 | 0.762 | 0.817 | 0.705 | 0.822 | 0.867 | 0.456 | 0.873 | 0.802 | – | 0.698 | 0.655 | 0.549 | 0.461 | 0.445 | 0.47 | 0.562
UMC-11 | 1.17 | 0.949 | 1.21 | 0.913 | 0.651 | 0.656 | 0.497 | 0.638 | 0.459 | 0.237 | 1.01 | 0.922 | 1.15 | 0.848 | 0.512 | 1.01 | 0.896 | 0.87 | 0.587 | 0.989
